Here are results for seven compounds from patent US20240270762A1, “PENICILLIN-BINDING PROTEIN INHIBITORS” (priority 2021, published 2024).

Values after ≈ are worked out from the molar mass of the structure shown.

For experiment [1], the system named is A. baumannii CDC-0045. Nature of the experiment: microbe, parasite or virus in culture. It is filed as cell-based. The conditions noted are these: Acinetobacter baumannii, CDC0045, read-out: MIC, A. baumannii CDC-0045.
Experiment [2] deals with P. aeruginosa CDC-0110. Nature of the experiment: microbe, parasite or virus in culture. It is filed as cell-based. The conditions noted are these: Pseudomonas aeruginosa, CDC0110, read-out: Minimum inhibitory concentration, P. aeruginosa CDC-0110.
Experiment [3] relates to A. baumannii CDC-0083. Nature of the experiment: microbe, parasite or virus in culture. Particulars: Acinetobacter baumannii, CDC0083, read-out: MIC, A. baumannii CDC-0083. In kind it is cell-based.
Experiment [4] deals with A. baumannii ATCC 19606. Nature of the experiment: microbe, parasite or virus in culture. It is filed as cell-based. Particulars: Acinetobacter baumannii, ATCC19606, read-out: MIC, A. baumannii ATCC 19606.
The subject of experiment [5] is A. baumannii ATCC 17978. Nature of the experiment: microbe, parasite or virus in culture. It is filed as cell-based. Particulars: Acinetobacter baumannii, ATCC17978, read-out: MIC, A. baumannii ATCC 17978.
Experiment [6] concerns A. baumannii CDC-0036. The experiment can be described thus: microbe, parasite or virus in culture. It is filed as cell-based. Particulars: Acinetobacter baumannii, CDC0036, read-out: MIC, A. baumannii CDC-0036.
Experiment [7] deals with A. baumannii PBP2 (Acinetobacter baumannii, UniProt D0C8Z9). The experiment can be described thus: Bocillin-FL competition binding via gel filtration, A. baumannii PBP2. Put shortly: (§1)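 Competitive equilibrium binding; reporter Bocillin-FL. PBP + inhibitor (titration) pre-incubated → Bocillin-FL, 15 min → gel filtration → fluorescence. EC50 from Hill fit of fraction bound vs [inhibitor].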
For orientation: Size exclusion chromatography separates by hydrodynamic size, large species first.

Experiment [8] concerns the target T1, A. baumannii PBP1a (Acinetobacter baumannii, UniProt A0ABX6CK30).
T1 sequence (A0ABX6CK30 1-851): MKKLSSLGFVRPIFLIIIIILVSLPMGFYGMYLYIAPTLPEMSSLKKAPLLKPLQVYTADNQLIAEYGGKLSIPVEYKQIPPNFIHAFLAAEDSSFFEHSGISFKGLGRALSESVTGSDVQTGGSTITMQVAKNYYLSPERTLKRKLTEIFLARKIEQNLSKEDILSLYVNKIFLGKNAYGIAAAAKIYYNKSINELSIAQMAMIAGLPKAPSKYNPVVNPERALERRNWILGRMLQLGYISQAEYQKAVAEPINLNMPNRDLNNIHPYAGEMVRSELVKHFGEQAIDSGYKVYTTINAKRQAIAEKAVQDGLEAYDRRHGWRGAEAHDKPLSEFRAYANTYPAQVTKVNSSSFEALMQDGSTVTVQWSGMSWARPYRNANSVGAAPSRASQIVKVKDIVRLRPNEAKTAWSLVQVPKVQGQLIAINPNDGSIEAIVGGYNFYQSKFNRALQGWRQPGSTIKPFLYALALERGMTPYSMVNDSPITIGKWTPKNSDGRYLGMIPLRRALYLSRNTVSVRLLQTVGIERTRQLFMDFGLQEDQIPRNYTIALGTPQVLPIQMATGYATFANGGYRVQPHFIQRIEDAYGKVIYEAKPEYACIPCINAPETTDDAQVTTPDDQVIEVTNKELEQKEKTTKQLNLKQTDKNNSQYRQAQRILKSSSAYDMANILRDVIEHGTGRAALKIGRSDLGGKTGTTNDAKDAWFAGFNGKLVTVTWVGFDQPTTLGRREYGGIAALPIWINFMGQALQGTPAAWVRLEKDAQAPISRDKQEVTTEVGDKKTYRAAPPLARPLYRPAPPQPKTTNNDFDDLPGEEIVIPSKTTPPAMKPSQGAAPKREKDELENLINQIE
Nature of the experiment: Bocillin-FL competition binding via gel filtration, A. baumannii PBP1a. The conditions noted are these: competition binding assay using Bocillin-FL via gel filtration; read-out: A. baumannii PBP1a Potency. The procedure, abridged:
as §1

The test system of experiment [9] is P. aeruginosa (ΔmexAB-oprM). The experiment can be described thus: Broth microdilution MIC in iron-depleted CAMHB (IDM). Particulars: Pseudomonas aeruginosa; iron-depleted CAMHB (IDM); […]; read-out: Minimum inhibitory concentration, P. aeruginosa ΔmexAB-oprM. In kind it is cell-based. In general terms: Dilution methods test growth across graded concentrations, often in twofold steps.

Experiment [10] deals with A. baumannii 1258916. The experiment can be described thus: microbe, parasite or virus in culture. It is filed as cell-based, Acinetobacter baumannii. The conditions noted are these: Acinetobacter baumannii, 1258916, read-out: MIC, A. baumannii 1258916.
For experiment [11], the system named is P. aeruginosa CDC-0054. Nature of the experiment: microbe, parasite or virus in culture. In kind it is cell-based. The conditions noted are these: Pseudomonas aeruginosa, CDC0054, read-out: Minimum inhibitory concentration, P. aeruginosa CDC-0054.
Experiment [12] deals with B. humptydooensis ATCC BAA-2767. Nature of the experiment: microbe, parasite or virus in culture. It is filed as cell-based. The conditions noted are these: Burkholderia humptydooensis, ATCCBAA2767, read-out: Minimum inhibitory concentration (MIC), B. humptydooensis ATCC BAA-2767.
Experiment [13] relates to P. aeruginosa ATCC 27853. The experiment can be described thus: microbe, parasite or virus in culture. It is filed as cell-based. The conditions noted are these: Pseudomonas aeruginosa, ATCC27853, read-out: Minimum inhibitory concentration, P. aeruginosa ATCC 27853.

Chain of A. baumannii PBP2 (D0C8Z9 whole entry): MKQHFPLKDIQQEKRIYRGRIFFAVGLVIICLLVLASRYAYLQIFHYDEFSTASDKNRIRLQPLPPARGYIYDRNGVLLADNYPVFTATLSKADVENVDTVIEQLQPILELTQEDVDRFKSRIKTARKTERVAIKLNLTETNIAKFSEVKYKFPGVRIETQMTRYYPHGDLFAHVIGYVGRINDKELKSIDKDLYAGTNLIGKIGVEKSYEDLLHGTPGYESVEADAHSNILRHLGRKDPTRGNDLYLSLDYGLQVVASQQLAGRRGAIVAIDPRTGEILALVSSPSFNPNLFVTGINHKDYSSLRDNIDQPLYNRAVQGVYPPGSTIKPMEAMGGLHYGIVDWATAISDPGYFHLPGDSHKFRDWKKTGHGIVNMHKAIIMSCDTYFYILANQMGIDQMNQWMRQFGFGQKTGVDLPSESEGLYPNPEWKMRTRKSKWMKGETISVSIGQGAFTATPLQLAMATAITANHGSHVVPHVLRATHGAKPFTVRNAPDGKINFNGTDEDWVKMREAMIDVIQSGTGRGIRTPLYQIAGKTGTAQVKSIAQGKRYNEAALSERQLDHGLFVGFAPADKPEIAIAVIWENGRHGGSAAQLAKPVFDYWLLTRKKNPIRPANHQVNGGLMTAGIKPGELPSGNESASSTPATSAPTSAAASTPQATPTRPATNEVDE

As to `O=C(NCCCN1CCN(C(=O)NC(C(=O)N[C@H]2Cc3ccc(F)c(C(=O)O)c3OB2O)c2cc(F)c(O)c(O)c2Cl)C(=O)C1=O)c1cc(O)ccc1Cl` (stereo partly drawn) [Example 408, (3R)-3-(2-(2-chloro-5-fluoro-3,4-dihydroxyphenyl)-2-(4-(3-(2-chloro-5-hydroxybenzamido)propyl)-2,3-dioxopiperazine-1-carboxamido)acetamido)-7-fluoro-2-hydroxy-3,4-dihydro-2H-benzo[e][1,2]oxaborinine-8-carboxylic acid], the MIC in [1] was less than 1 µg/mL; in experiment [2], less than 1 µg/mL; in [3], less than 1 µg/mL; in experiment [4] it was less than 1 µg/mL; in experiment [5], less than 1 µg/mL; in experiment [6], 8 to 16 µg/mL (≈ 10.1 to 20.1 µM). Further, the MIC in [9] is less than 1 µg/mL; in [10], 2 to 4 µg/mL (≈ 2.52 to 5.04 µM); in experiment [11], less than 1 µg/mL; in experiment [12], 8 to 16 µg/mL (≈ 10.1 to 20.1 µM); in experiment [13], less than 1 µg/mL. Further, the EC50 in experiment [7] and in [8] was less than 10 µM in each case.

For `O=C(NCCCN1CCN(C(=O)NC(C(=O)N[C@H]2Cc3ccc(F)c(C(=O)O)c3OB2O)c2cc(F)c(O)c(O)c2Cl)C(=O)C1=O)c1ccc(F)c(O)c1Cl` (stereo partly drawn) [Example 412, (3R)-3-(2-(4-(3-(2-chloro-4-fluoro-3-hydroxybenzamido)propyl)-2,3-dioxopiperazine-1-carboxamido)-2-(2-chloro-5-fluoro-3,4-dihydroxyphenyl)acetamido)-7-fluoro-2-hydroxy-3,4-dihydro-2H-benzo[e][1,2]oxaborinine-8-carboxylic acid], the MIC in [1] is 2 to 4 µg/mL (≈ 2.46 to 4.92 µM); in experiment [2], less than 1 µg/mL; in [3], 8 to 16 µg/mL (≈ 9.85 to 19.7 µM); in [4] it was less than 1 µg/mL; in experiment [5], less than 1 µg/mL; in [6], 8 to 16 µg/mL (≈ 9.85 to 19.7 µM). Also, the MIC in experiment [10] was 2 to 4 µg/mL (≈ 2.46 to 4.92 µM); in experiment [11], less than 1 µg/mL; in [12], 2 to 4 µg/mL (≈ 2.46 to 4.92 µM); in experiment [13], less than 1 µg/mL. Also, the EC50 in experiment [7] and in experiment [8] was less than 10 µM in each case.

Regarding `O=C(NCCCN1CCN(C(=O)NC(C(=O)N[C@H]2Cc3ccc(F)c(C(=O)O)c3OB2O)c2cc(F)c(O)c(O)c2Cl)C(=O)C1=O)c1ccnc(F)c1` (stereo partly drawn) [Example 466, (3R)-3-(2-(2-chloro-5-fluoro-3,4-dihydroxyphenyl)-2-(4-(3-(2-fluoroisonicotinamido)propyl)-2,3-dioxopiperazine-1-carboxamido)acetamido)-7-fluoro-2-hydroxy-3,4-dihydro-2H-benzo[e][1,2]oxaborinine-8-carboxylic acid], the MIC in experiment [1] was 2 to 4 µg/mL (≈ 2.62 to 5.24 µM); in [2] it was less than 1 µg/mL; in experiment [3] it was 2 to 4 µg/mL (≈ 2.62 to 5.24 µM); in experiment [4] it was less than 1 µg/mL; in experiment [5] it was less than 1 µg/mL; in [6] it was 2 to 4 µg/mL (≈ 2.62 to 5.24 µM). The MIC in [9] was less than 1 µg/mL; in experiment [10], 2 to 4 µg/mL (≈ 2.62 to 5.24 µM); in [11], less than 1 µg/mL; in experiment [12] it was 8 to 16 µg/mL (≈ 10.5 to 21 µM); in [13], 2 to 4 µg/mL (≈ 2.62 to 5.24 µM). This compound also registered an EC50 in [7] of 10 to 50 µM.

As for `O=C(NCCCN1CCN(C(=O)N[C@@H](C(=O)N[C@H]2Cc3ccc(F)c(C(=O)O)c3OB2O)c2cc(F)c(O)c(O)c2Cl)C(=O)C1=O)c1cccc(O)c1Cl` [Example 303, (R)-3-((R)-2-(4-(3-(2-chloro-3-hydroxybenzamido)propyl)-2,3-dioxopiperazine-1-carboxamido)-2-(2-chloro-5-fluoro-3,4-dihydroxyphenyl)acetamido)-7-fluoro-2-hydroxy-3,4-dihydro-2H-benzo[e][1,2]oxaborinine-8-carboxylic acid], the MIC in experiment [1], in [2], in [3], in experiment [4], in [5] and in experiment [6] was less than 1 µg/mL each time. Further, the MIC in experiment [9], in experiment [10], in experiment [11], in experiment [12] and in experiment [13] was less than 1 µg/mL throughout. In addition, the EC50 in [8] was less than 10 µM.

Regarding `O=C(NCCS(=O)(=O)N1CCN(C(=O)N[C@@H](C(=O)N[C@H]2Cc3ccc(F)c(C(=O)O)c3OB2O)c2cc(F)c(O)c(O)c2Cl)C1=O)Nc1ccncc1` [Example 290, (R)-3-((R)-2-(2-chloro-5-fluoro-3,4-dihydroxyphenyl)-2-(2-oxo-3-((2-(3-(pyridin-4-yl)ureido)ethyl)sulfonyl)imidazolidine-1-carboxamido)acetamido)-7-fluoro-2-hydroxy-3,4-dihydro-2H-benzo[e][1,2]oxaborinine-8-carboxylic acid], the MIC was less than 1 µg/mL in experiment [1]; less than 1 µg/mL in experiment [2]; less than 1 µg/mL in experiment [3]; less than 1 µg/mL in [4]; less than 1 µg/mL in experiment [5]; 2 to 4 µg/mL (≈ 2.56 to 5.12 µM) in experiment [6]. Also, the MIC is less than 1 µg/mL in experiment [9]; less than 1 µg/mL in experiment [10]; 2 to 4 µg/mL (≈ 2.56 to 5.12 µM) in experiment [11]; less than 1 µg/mL in experiment [12]; 2 to 4 µg/mL (≈ 2.56 to 5.12 µM) in experiment [13]. The same compound gave an EC50 in experiment [7] of less than 10 µM.

As for `O=C(NCCCN1CCN(C(=O)NC(C(=O)N[C@H]2Cc3ccc(F)c(C(=O)O)c3OB2O)c2cc(F)c(O)c(O)c2Cl)C(=O)C1=O)c1ccc(O)c(F)c1` (stereo partly drawn) [Example 304, (3R)-3-(2-(2-chloro-5-fluoro-3,4-dihydroxyphenyl)-2-(4-(3-(3-fluoro-4-hydroxybenzamido)propyl)-2,3-dioxopiperazine-1-carboxamido)acetamido)-7-fluoro-2-hydroxy-3,4-dihydro-2H-benzo[e][1,2]oxaborinine-8-carboxylic acid], the MIC is less than 1 µg/mL in experiment [1]; less than 1 µg/mL in [2]; less than 1 µg/mL in [3]; less than 1 µg/mL in experiment [4]; less than 1 µg/mL in [5]; 2 to 4 µg/mL (≈ 2.57 to 5.14 µM) in experiment [6]. Also, the MIC in experiment [9] was less than 1 µg/mL; in experiment [10], less than 1 µg/mL; in experiment [11], 2 to 4 µg/mL (≈ 2.57 to 5.14 µM); in experiment [12], 2 to 4 µg/mL (≈ 2.57 to 5.14 µM); in experiment [13], 2 to 4 µg/mL (≈ 2.57 to 5.14 µM). The EC50 in [8] was less than 10 µM.

As to `Cc1cc(C(=O)NCCCN2CCN(C(=O)NC(C(=O)N[C@H]3Cc4ccc(F)c(C(=O)O)c4OB3O)c3cc(F)c(O)c(O)c3Cl)C(=O)C2=O)c(F)cn1` (stereo partly drawn) [Example 301, (3R)-3-(2-(2-chloro-5-fluoro-3,4-dihydroxyphenyl)-2-(4-(3-(5-fluoro-2-methylisonicotinamido)propyl)-2,3-dioxopiperazine-1-carboxamido)acetamido)-7-fluoro-2-hydroxy-3,4-dihydro-2H-benzo[e][1,2]oxaborinine-8-carboxylic acid], the MIC in experiment [1] was less than 1 µg/mL; in experiment [2], less than 1 µg/mL; in experiment [3], less than 1 µg/mL; in experiment [4] it was less than 1 µg/mL; in experiment [5] it was less than 1 µg/mL; in experiment [6], 2 to 4 µg/mL (≈ 2.57 to 5.15 µM). In addition, the MIC was less than 1 µg/mL in [9]; less than 1 µg/mL in experiment [10]; less than 1 µg/mL in experiment [11]; 2 to 4 µg/mL (≈ 2.57 to 5.15 µM) in experiment [12]; less than 1 µg/mL in [13]. In [8], the EC50 lay in the range of 10 to 50 µM.
